Test results reported in US10654866B2, “Selective estrogen receptor degraders” (Eli Lilly and Company, priority 2018, dated 2020).
Where two headings read alike, the source gives them in different places.

Tests used:
[1] = molecular target: ERα (Homo sapiens (Human), UniProt P03372); test: PRα induction assay in MCF7 cells; type: cell-based; conditions: MCF7 breast cancer cells
Protocol: The purpose of the following PRα induction assay is to determine whether a test compound has agonistic activity against ERα receptor (an agonist would be expected to activate the receptor).
Culture MCF7 (purchased from ATCC HTB-22) in DMEM media supplemented with 10% FBS, 0.01 mg/mL human insulin 1 and 1% penicillin/streptomycin antibiotics and plate the cells (prior to becoming 70% confluent) in 384-well flat-bottom plates at a density of 4,000 cells per well in 20 μL volume in DMEM phenol red free media containing 10% FBS (charcoal stripped). Incubate the cells overnight in a cell culture incubator (5% CO2, 95% relative humidity at 37° C.) and allow the cells to attach to the plate. The following day, dose the cells with test compound. Use an Echo 555 acoustic dispenser to prepare compound serial dilutions (1:3) in a range from 6 μM to 0.0003 μM. Dose the cells with the addition of the test compound (5 μL) from the serial dilution plate to the cell plate producing a final DMSO concentration of 0.2% with a final concentration of the test compound dose range between 2 and 0.0001 μM. For the maximum point use media containing 0.2% of DMSO and for the minimum point, use fulvestrant diluted at 2 μM final concentrations in the growth media containing 0.2% DMSO. After dosing with the test compound, incubate the cell plates at 37° C. and 5% CO2 for 24 hours. Fix the cells by adding 14% para-formaldehyde (10 μL) for 30 minutes at room temperature. Wash cells once with PBS (20 μL) and incubate with PBS (20 μL) containing 0.5% (v/v) TWEEN® 20 for 1 hour. Wash cells twice with PBS (20 μL) containing 0.05% TWEEN® 20 and block with 3% BSA in PBS containing 0.05% TWEEN® 20 and 0.1% TRITON™ X-100 (20 μL/well) for 1 hour at room temperature. […]
The following day, wash cells with PBS 0.05% TWEEN® 20 (2×20 μL) and incubate with secondary antibody (20 μL/well) (1:1000 dilution, Goat anti-rabbit IgM ALEXA FLUOR™ 488) in PBS 1% BSA for 105 minutes at room temperature. […] Scan plates with ACUMEN EXPLORER™ [Laser-scanning fluorescence microplate cytometer manufactured by TTP LABTECH LTD] to measure PRα. […]

[2] = test system: MCF7 ESR1 Y537N mutant cells; test: Cell proliferation assay in MCF7-ESR1 Y537N-682; type: cell-based, human; conditions: seven days, read-out: Relative IC50 (μM) MCF7 ESR1 Y537N mutant cells
Protocol: (§1) Seed MCF7 (purchased from ATCC HTB-22) cells at a density of 2,000 cells per well in DMEM phenol red free media 10% FBS (20 μL volume) (charcoal stripped) into a clear bottom 384-well cell culture plate. Plate MCF7-ESRY537N-682 (generated by CRISPR/Cas9 gene editing of ESr1 gene in MCF7 cells, clone #682) in DMEM media supplemented with 10% FBS, and 1% penicillin/streptomycin antibiotics at a density of 1000 cells per well. Incubate the plates at 37° C. and 5% CO2. The following day dose the cells with the test compound. Use an Echo 555 acoustic dispenser to prepare test compound serial dilutions (1:3) in a range from 60 μM to 0.003 μM. Dose the cells with the addition of 5 μL from the serial dilution plate to the cell plate, producing a final DMSO concentration of 0.2% with a final test compound concentration dose range between 20 and 0.001 μM. For the maximum point use media containing 0.2% of DMSO and for the minimum point use fulvestrant diluted at 2 μM final concentrations in the growth media containing 0.2% DMSO. After dosing with the test compound, incubate the cell plates at 37° C. and 5% CO2. Seven days after test compound addition, remove the plates from the incubator and add cold EtOH 96% (65 μL) to each well. […] Seal the plates and incubate 1 hour at room temperature on the bench (preserved from light). Scan the plates with ACUMEN EXPLORER™ [Laser-scanning fluorescence microplate cytometer manufactured by TTP LABTECH LTD].

[3] = test system: MCF7 ESR1 wild type; test: Cell proliferation assay in MCF7; type: cell-based, human; conditions: seven days, read-out: Relative IC50 (μM) MCF7 ESR1 wild type
Protocol: as §1

[4] = test system: MCF7 ER-positive breast cancer model; test: In vivo combination studies in MCF7 ER-positive breast cancer xenograft model; parameters: species or system mice; conditions: Example 10 15 mpk; for Difference (Treatment 1 − Treatment 2): Treatment 1 = Vehicle, log10 tumor volume, QD × 42, PO
Excerpt: Otherwise, the statistical conclusion is additive.

Sequence of ERα (P03372 whole entry): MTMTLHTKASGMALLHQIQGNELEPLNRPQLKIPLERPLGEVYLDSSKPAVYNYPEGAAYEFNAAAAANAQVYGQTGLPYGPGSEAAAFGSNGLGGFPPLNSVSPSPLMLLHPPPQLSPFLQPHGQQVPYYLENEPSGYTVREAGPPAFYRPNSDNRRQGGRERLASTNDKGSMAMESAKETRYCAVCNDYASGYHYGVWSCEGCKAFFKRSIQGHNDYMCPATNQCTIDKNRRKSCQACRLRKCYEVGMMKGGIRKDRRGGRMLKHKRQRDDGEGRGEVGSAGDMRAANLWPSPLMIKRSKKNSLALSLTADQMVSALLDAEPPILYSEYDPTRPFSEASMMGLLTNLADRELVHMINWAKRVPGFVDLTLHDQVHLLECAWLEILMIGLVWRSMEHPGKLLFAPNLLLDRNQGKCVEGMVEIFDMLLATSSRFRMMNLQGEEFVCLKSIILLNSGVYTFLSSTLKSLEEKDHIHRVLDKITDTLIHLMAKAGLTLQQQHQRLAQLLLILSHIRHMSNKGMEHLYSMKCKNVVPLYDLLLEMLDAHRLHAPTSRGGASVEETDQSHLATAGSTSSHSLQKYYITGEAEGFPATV

agonistic activity [1] | IC50 ([2]; Homo sapiens, MCF7, […]) | IC50 ([3]; Homo sapiens, MCF7, […]) | IC50 [2] | IC50 [3] | SMILES | Delta T/C % or % Regression ([4]; Abemaciclib 50 mpk, QD × 42, PO (Table 20)) | Delta T/C % or % Regression ([4]; Everolimus 5 mpk, QD × 42, PO (Table 24)) | Delta T/C % or % Regression ([4]; alpelisib 15 mpk (d1-d7), 10 mpk (d8-42), QD × 42, PO (Table 22)) | Difference (Treatment 1 − Treatment 2) ([4]; Abemaciclib 50 mpk) | Difference (Treatment 1 − Treatment 2) ([4]; Everolimus 5 mpk) | Difference (Treatment 1 − Treatment 2) ([4]; alpelisib 15 mpk (d1-d7), 10 mpk (d8-42))
no significant agonistic activity | 0.0321 ± 0.0068 µM | 0.00768 ± 0.0126 µM | – | – | Oc1ccc2c3c(cnc2c1)-c1ccc(C(F)(F)F)cc1OC3c1ccc(OCCN2CC(CF)C2)cc1 (racemic) [Example 1, 5-(4-{2-[3-(Fluoromethyl)azetidin-1-yl]ethoxy}phenyl)-8-(trifluoromethyl)-5H-[1]benzopyrano[4,3-c]quinolin-2-ol] | – | – | – | – | – | –
no significant agonistic activity | – | – | 1.86 ± 1.03 µM | – | Oc1ccc2c3c(cnc2c1)-c1ccc(C(F)(F)F)cc1OC3c1ccc(OCCN2CC(CF)C2)cc1 (single isomer, unassigned) [Example 1A, 5-(4-{2-[3-(Fluoromethyl)azetidin-1-yl]ethoxy}phenyl)-8-(trifluoromethyl)-5H-[1]benzopyrano[4,3-c]quinolin-2-ol] | – | – | – | – | – | –
– | – | – | 0.0106 µM | 0.00438 µM | Cc1ccc(S(=O)(=O)O)cc1.Oc1ccc2c3c(cnc2c1)-c1ccc(C(F)(F)F)cc1OC3c1ccc(OCCN2CC(CF)C2)cc1 (single isomer, unassigned; isomer 2) [Example 10, 5-(4-{2-[3-(Fluoromethyl)azetidin-1-yl]ethoxy}phenyl)-8-(trifluoromethyl)-5H-[1]benzopyrano[4,3-c]quinolin-2-ol, 4-methylbenzenesulfonic acid, Isomer 2] | −51% | −51% | −51% | 0.659 | 0.445 | 0.241
